This is an account of results in patent US5399565A, “Pyrazolidinone CCK and gastrin antagonists and pharmaceutical formulations therof” (priority 1993, dated 1995).

For orientation: IC50 means the concentration at which inhibition is half-maximal. One may read the inhibition as the relative decrease from the control value, in per cent. One may read the pKa as the pH at which an ionisable group is half protonated.

Where two headings read alike, the source gives them in different places.

The target in one data set is T1, brain CCK receptor (Mus musculus, UniProt P56481).
T1 construct: from tissue; host or cells: forebrain membranes of male CF-1 mice
T1 sequence (P56481 1-453): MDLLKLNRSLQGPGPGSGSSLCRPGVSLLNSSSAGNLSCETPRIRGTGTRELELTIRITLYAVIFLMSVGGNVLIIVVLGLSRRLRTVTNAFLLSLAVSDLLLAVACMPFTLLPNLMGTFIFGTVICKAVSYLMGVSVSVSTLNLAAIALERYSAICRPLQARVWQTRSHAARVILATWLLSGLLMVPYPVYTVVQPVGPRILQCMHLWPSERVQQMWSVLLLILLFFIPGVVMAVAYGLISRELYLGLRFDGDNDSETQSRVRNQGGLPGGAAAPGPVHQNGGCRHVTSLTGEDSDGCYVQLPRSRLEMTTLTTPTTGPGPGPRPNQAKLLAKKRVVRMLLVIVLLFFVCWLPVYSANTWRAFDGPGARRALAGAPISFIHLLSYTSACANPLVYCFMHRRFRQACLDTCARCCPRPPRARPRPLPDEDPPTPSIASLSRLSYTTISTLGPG
Nature of the data set: CCK receptor binding, mouse brain membranes (125I-CCK-8 sulfate).

Data set [1] deals with T2, peripheral type CCK receptors in rat pancreas (Rattus norvegicus, UniProt P30551).
T2 construct: Pancreas was obtained from male Sprague-Dawley rats; from tissue; host or cells: pancreas membranes of male Sprague-Dawley rats
T2 sequence (P30551 1-444): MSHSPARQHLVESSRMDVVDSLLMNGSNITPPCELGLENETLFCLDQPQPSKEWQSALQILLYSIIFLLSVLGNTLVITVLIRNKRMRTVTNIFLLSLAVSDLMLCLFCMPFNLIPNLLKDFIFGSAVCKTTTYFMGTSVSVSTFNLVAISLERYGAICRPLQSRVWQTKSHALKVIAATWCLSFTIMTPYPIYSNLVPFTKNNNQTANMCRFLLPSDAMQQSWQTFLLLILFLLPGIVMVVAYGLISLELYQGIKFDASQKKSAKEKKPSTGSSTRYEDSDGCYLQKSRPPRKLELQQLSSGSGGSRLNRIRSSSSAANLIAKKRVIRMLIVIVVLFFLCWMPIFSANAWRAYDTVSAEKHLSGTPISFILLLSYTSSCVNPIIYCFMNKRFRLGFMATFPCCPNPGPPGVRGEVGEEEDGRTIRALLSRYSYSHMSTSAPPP
Nature of the data set: Binding to peripheral type CCK receptors in rat pancreas (3H-L-364,718). To be noted: for inhibition at 10 µM: read-out: Pancreas Percent Inhibition; for IC50: rat pancreas. The method, boiled down:
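Washed pancreatic membranes from male Sprague-Dawley rats (150-200 g) incubated 1 h at room temperature with 0.4-0.6 nM ³H-L-364,718 in 50 mM Tris pH 7.4, 5 mM MgCl2, bacitracin, 5 mM DTT. Bound radioactivity counted after filtration; nonspecific binding defined with 100 nM L-364,718; IC50 determined.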

Another data set in a line: pKa by titration. Particulars: first or only value; for pKa: 2:1 dmf:h2o, titration pKa.
The target of the next data set is T3, gastrin receptor (Cavia porcellus, UniProt H0VZC5).
T3 construct: Guinea pig stomach fundus was obtained from male Hartley guinea pigs; from tissue; host or cells: stomach fundus mucosal membranes of male Hartley guinea pigs
T3 sequence (H0VZC5 1-426): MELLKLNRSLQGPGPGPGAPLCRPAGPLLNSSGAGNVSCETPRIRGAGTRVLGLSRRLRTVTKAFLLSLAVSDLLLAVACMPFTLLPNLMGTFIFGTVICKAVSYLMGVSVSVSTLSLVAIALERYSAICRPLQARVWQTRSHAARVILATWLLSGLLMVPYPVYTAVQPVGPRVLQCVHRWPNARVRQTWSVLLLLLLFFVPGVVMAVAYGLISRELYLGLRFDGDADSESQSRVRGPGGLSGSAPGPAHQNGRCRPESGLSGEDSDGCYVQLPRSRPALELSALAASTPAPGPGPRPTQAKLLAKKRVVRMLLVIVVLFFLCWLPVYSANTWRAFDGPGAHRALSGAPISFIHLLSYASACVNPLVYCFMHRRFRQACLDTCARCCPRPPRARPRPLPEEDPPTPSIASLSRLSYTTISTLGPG
As to the kind of experiment: Gastrin binding to guinea pig stomach mucosal membranes (125I-gastrin I). As for the experimental part:
The method used for gastrin binding to guinea pig stomach mucosal membranes was similar to that described by Takeuchi, Speir and Johnson (Am. J. Physiol. 237(3): E284-E294, 1979). Guinea pig stomach fundus was obtained from male Hartley guinea pigs, 300-350 g, and the mucosa was scraped off with a glass slide. The mucosa was homogenized in 50 mM Tris buffer, pH 7.4, containing 1 mM phenylmethanesulfonyl fluoride using a Dounce glass homogenizer, and the suspension was centrifuged at 40,000 g for 10 min. The resulting pellet was resuspended and centrifuged once more, the final pellet was then suspended in 100 ml assay buffer per 1 guinea pig stomach to give a protein concentration of 200-300 μg/200 μl. The assay buffer consisted of 50 mM Tris buffer, pH 7.4, 5 mM MgCl2, 0.14 mg/ml bacitracin, and 1 μg/ml each of leupeptin, chymostatin, aprotinin and pepstatin. Reagent volumes for the assay were the same as those used for CCK binding to brain membranes. The radioactive ligand was 20 pM ^125 I-gastrin I, from DuPont NEN (NEX-176). The samples were incubated 3 hours at room temperature and filtered and counted as described for CCK binding to brain membranes. Compound samples were prepared and IC-50 values were determined as described for the CCK-brain receptor binding. Non-specific binding was determined using 100 nM gastrin I (human synthetic from Sigma Chemical Co.).

The mark [2] stands for this setting: mouse brain membranes, read-out: Brain IC50.
[3] abbreviates: guinea pig stomach mucosal membranes, read-out: Gastrin IC50.

Turning to `O=C1NN(c2nc3ccc(Cl)cc3s2)[C@@H](c2ccccc2)[C@@H]1c1ccccc1` (relative stereo) [Example 9, 1-[6-Chloro-2-benzothiazolyl]-4,5-diphenyl-3-pyrazolidinone], on brain CCK receptor (setting [2]), the IC50 was 3700 nM. The inhibition at 10 µM in data set [1] (at 10 μM) amounted to 33%. The pKa in the data set “pKa by titration” was 6.6.
On to `C[C@@H](OC(=O)N1NC(=O)[C@@H](c2ccccc2)[C@@H]1c1ccccc1)c1ccccc1` (single isomer, unassigned) [Example 139A], for which the pKa in “pKa by titration” stood at 8.7.
For `O=C1NN(C(=O)NCc2ccc(Cl)c(Cl)c2)[C@@H](c2ccccc2)[C@@H]1c1ccccc1` (relative stereo) [Example 7, 1-[(3,4-Dichlorobenzyl)aminocarbonyl]-4,5-diphenyl-3pyrazolidinone], the half-maximal inhibitory concentration (IC50) at brain CCK receptor (setting [2]) worked out at 1100 nM. Also, the inhibition at 10 µM in data set [1] (at 10 μM) stood at 81%. The pKa in the data set “pKa by titration” is 8.4.
On to `O=C1NN(C(=O)Nc2ccc(Br)cc2)C(c2ccccc2)C1c1cccc(Cl)c1` (stereo not shown) [Example 126], for which the 50% inhibitory concentration (IC50) on gastrin receptor (setting [3]) worked out at 210 nM; on brain CCK receptor (setting [2]), 11 nM. The inhibition at 10 µM in data set [1] (at 10 μM) turned out to be 59%.
On to `O=C1NN(C(=O)Nc2ccc(Br)cc2)[C@@H](c2ccccc2Cl)[C@@H]1c1ccccc1Cl` (relative stereo) [Example 133], for which the IC50 on gastrin receptor (setting [3]) was found to be 25 nM; on brain CCK receptor (setting [2]), 6 nM; in data set [1], 7900 nM.
As for `O=C1NN(C(=O)Nc2ccc(Cl)c(Cl)c2)[C@H](c2ccccc2)[C@H]1c1ccccc1` (relative stereo) [Example 46], the 50% inhibitory concentration (IC50) on gastrin receptor (setting [3]) was 210 nM; at brain CCK receptor (setting [2]) it was 42 nM; in data set [1], 1200 nM.
With `C[C@@H](OC(=O)N1NC(=O)[C@@H](c2ccccc2)[C@@H]1c1ccccc1)c1ccccc1` (single isomer, unassigned) [Example 139B], the “titration pKa” value in the data set “pKa by titration” (2:1 DMF:H2O, listed as Diastereomer B) was found to be 8.6.
With `COc1cccc(C2C(=O)NN(C(=O)Nc3ccc(Br)cc3)C2c2ccccc2)c1` (stereo not shown) [Example 123], the results for the IC50 on gastrin receptor (setting [3]) and at brain CCK receptor (setting [2]) were 690 nM and 68 nM, respectively. In addition, in data set [1] (at 10 μM), the inhibition at 10 µM is 23%.
For `O=C1NN(C(=O)Nc2ccc(C(F)(F)F)cc2)C(c2ccccc2Cl)C1c1ccccc1` (stereo not shown) [Example 110], the values for the IC50 on gastrin receptor (setting [3]) and at brain CCK receptor (setting [2]) were 130 nM and 7 nM, respectively. Besides, the “Pancreas Percent Inhibition” value in data set [1] (at 10 μM) was found to be 47%.
In the case of `O=C1NN(C(=O)Nc2ccc(Br)cc2)C(c2ccccc2Cl)C1c1ccccc1` (stereo not shown) [Example 114], the values for the half-maximal inhibitory concentration (IC50) at gastrin receptor (setting [3]) and on brain CCK receptor (setting [2]) were 360 nM and 20 nM, respectively. For the same molecule, the inhibition at 10 µM in data set [1] (at 10 μM) came out at 38%.
On the same counts, the results for `O=C1NN(C(=O)Nc2ccc(Br)cc2)C(c2ccccc2)C1c1cccc(Br)c1` (stereo not shown) [Example 127] are 210 nM, 32 nM and 73%.
In the case of `CC(C)c1ccc(NC(=O)N2NC(=O)C(c3ccccc3)C2c2ccccc2Cl)cc1` (stereo not shown) [Example 121], the IC50 at gastrin receptor (setting [3]) turned out to be 120 nM; at brain CCK receptor (setting [2]), 14 nM. In addition, in data set [1] (at 10 μM), the inhibition at 10 µM came out at 26%.
For `O=C1NN(C(=O)Nc2ccc(Br)cc2)[C@@H](c2ccccc2)[C@@H]1c1ccccc1` (relative stereo) [Example 20], the IC50 was determined as 490 nM on gastrin receptor (setting [3]), 31 nM on brain CCK receptor (setting [2]) and 11600 nM in data set [1].
Turning to `O=C1NN(C(=O)Nc2ccc(Br)cc2)C(c2ccccc2)C1c1ccc(Cl)cc1` (stereo not shown) [Example 129], the results for the IC50 on gastrin receptor (setting [3]) and at brain CCK receptor (setting [2]) were 860 nM and 160 nM, respectively. The inhibition at 10 µM in data set [1] (at 10 μM) came out at 69%.
On the same counts, the results for `O=C1NN(C(=O)Nc2ccc(C(F)(F)F)cc2)[C@@H](c2ccccc2)[C@@H]1c1ccccc1` (relative stereo) [Example 16] are 420 nM, 44 nM and 62%.
On the same counts, the results for `O=C1NN(C(=O)Nc2ccc(Br)cc2)[C@@H](c2ccccc2Cl)[C@H]1c1ccccc1Cl` (relative stereo) [Example 133A] are 1500 nM, 360 nM and 55%.
Take `O=C1NN(C(=S)Nc2ccc3ccccc3c2)[C@@H](c2ccccc2)[C@@H]1c1ccccc1` (relative stereo) [Example 136, 1-[(2-Naphthyl)aminothiocarbonyl]-4,5-diphenyl-3-pyrazolidinone]: in data set [1], the IC50 turned out to be 160 nM. This molecule also gave a pKa in the data set “pKa by titration” of 5.8.
For `O=C1NN(C(=O)Nc2ccc(Br)cc2)C(c2cccnc2)C1c1ccccc1` (stereo not shown) [Example 135], the figures for the IC50 at gastrin receptor (setting [3]) and at brain CCK receptor (setting [2]) were 1700 nM and 140 nM, respectively. In addition, the inhibition at 10 µM in data set [1] (at 10 μM) is 18%.
For `O=C1NN(C(=O)Nc2ccc3ncccc3c2)[C@@H](c2ccccc2)[C@@H]1c1ccccc1` (relative stereo) [Example 93], in that order: 660 nM, 290 nM and 75%.
Consider `O=C1NN(C(=O)Nc2ccc(Br)cc2)C(c2ccccc2)C1c1cccc([N+](=O)[O-])c1` (stereo not shown) [Example 125], for which the figures for the concentration for half-maximal inhibition (IC50) at gastrin receptor (setting [3]) and at brain CCK receptor (setting [2]) were 590 nM and 100 nM, respectively. In addition, in data set [1] (at 10 μM), the inhibition at 10 µM is 42%.
Regarding `O=C1NN(C(=O)Nc2ccc(C(F)(F)F)cc2)C(c2ccccc2)C1c1ccccc1Cl` (stereo not shown) [Example 130], the IC50 was found to be 100 nM at gastrin receptor and 12 nM at brain CCK receptor (Brain IC50, mouse brain membranes). The inhibition at 10 µM in data set [1] (at 10 μM) was determined as 42%.
For the molecule `CSc1ccc(NC(=O)N2NC(=O)[C@@H](c3ccccc3)[C@@H]2c2ccccc2)cc1` (relative stereo) [Example 38], the values for the IC50 on gastrin receptor (setting [3]) and on brain CCK receptor (setting [2]) were 240 nM and 56 nM, respectively. In addition, the inhibition at 10 µM in data set [1] (at 10 μM) was found to be 53%.
For `O=C1NN(C(=O)Nc2ccc(Cl)c(C(F)(F)F)c2)[C@@H](c2ccccc2)[C@@H]1c1ccccc1` (relative stereo) [Example 1, 1-[(4-Chloro-3-trifluoromethylphenyl)aminocarbonyl]-4,5-diphenyl-3-pyrazolidinone], the IC50 on gastrin receptor (setting [3]) stood at 150 nM; at brain CCK receptor (setting [2]), 22 nM; in data set [1] it was 190 nM.
For `CC(C)c1ccc(NC(=O)N2NC(=O)C(c3ccccc3Cl)C2c2ccccc2)cc1` (stereo not shown) [Example 132], the IC50 at gastrin receptor (setting [3]) was 70 nM; at brain CCK receptor (setting [2]), 8 nM. Also, the inhibition at 10 µM in data set [1] (at 10 μM) stood at 48%.
On the same counts, the results for `O=C1NN(C(=O)Nc2ccc3c(c2)CCCC3)[C@H](c2ccccc2)[C@H]1c1ccccc1` (relative stereo) [Example 50] are 81 nM, 13 nM and 87%.
